Reference: PMC9048745, “Physicochemical investigation of a novel curcumin diethyl γ-aminobutyrate, a carbamate ester prodrug of curcumin with enhanced anti-neuroinflammatory activity” (PLoS ONE, 2022)
Where two headings read alike, the source gives them in different places.

Key:
[1] = test system: IL-6 release in LPS-stimulated BV-2 microglial cells; experiment: IL-6 ELISA; format: cell-based, murine; conditions: 10 μM, 12 h pre-incubation, then 1 μg/mL LPS 24 h; compared with curcumin
Protocol: BV-2 microglial cells were plated in a 24-well plate at a density of 2 × 10^5 per well for 24 h. The cells were pre-incubated for 12 h with curcumin (10 μM), CUR-2GE (10 μM), medium (DMEM), or a vehicle (0.5% DMSO). The cells were then induced with 1 μg/mL LPS for 24 h. The culture medium samples were collected and analyzed for nitric oxide (NO) and cytokines (TNF- and IL-6) using NO and enzyme-linked immunoassay (ELISA) assays, respectively.
Quantification of TNF-α and IL-6 was performed using commercially available ELISA kits according to the manufacturer’s protocol (BioLegend, San Diego, CA, USA). The absorbance was measured at 450 nm using the microplate reader, and the amount of TNF-α and IL-6 was determined against their corresponding standard curves of TNF-α and IL-6.

[2] = Partition coefficient, shake flask method (OECD 107); format: physicochemical; conditions: 25°C, aqueous phase not detectable, LOQ of 0.05 μg/mL used for calculation
Protocol: The partition coefficient of CUR-2GE was quantified using the shake flask method according to the guideline of OECD 107 with some modifications. A saturated mixture of n-octanol/water was firstly prepared at 25°C by stirring an equal volume of n-octanol/water for 24 h and left standing until complete separation. A 1 mg of CUR-2GE was dissolved in saturated n-octanol and water at volume ratios of 1:1, 1:2 and 2:1 in screw cap tubes. Experiments were run in duplicate. The tube was shaken through 180° over the transverse axis approximately 100 times in 5 min at room temperature (25°C) to reach equilibrium and phase distribution. The phases were then separated by centrifugation at 25°C at 5,500 rpm for 10 min. […] CUR-2GE concentrations in each phase were analyzed by UPLC, and the Po/w value was determined. In addition to water used as an aqueous phase, the partition coefficient between n-octanol and buffer at pH 4.5 and the Po/buffer pH 4.5 value were determined (see S1 Appendix).
The Po/w value and Po/buffer pH 4.5 value were calculated by Eq. 3 and Eq. 4, respectively. The Log Po/w and Log Po/buffer pH 4.5 were evaluated from the average results (n = 6) from three solvent ratios, where the results fall within the range of variation of ± 0.3 units. […]
(§1) The half-lives (t1/2) of CUR-2GE were calculated by Eq. 6: […]

[3] = Chemical stability in aqueous buffer solutions at 37°C; format: physicochemical; conditions: for half-life at 10 μg/mL: read-out: t1/2, hydrolysis (converted)
Protocol: Chemical stability of CUR-2GE was performed at 37°C in aqueous buffer solutions at pH 1.2, 4.5, 6.8 and 7.4. CUR-2GE (1 mg) was dissolved in DMSO (1 mL) and adjusted with the diluent in a 5-mL volumetric flask to obtain a stock solution at 200 μg/mL. The stock solution was diluted with a pre-incubated buffer in a vial at 37°C at an initial concentration of 10 μg/mL [26]. Each sample was incubated at 37°C at appropriate intervals and analyzed using UPLC. The experiment was performed in triplicate. The hydrolytic products were also identified by comparing chromatographic retention times to curcumin and CUR-1GE. Kinetic profiles of CUR-2GE and its hydrolytic products, including curcumin and CUR-1GE, were determined by plotting percent peak area vs. incubation time. The linear slope of the natural logarithm of concentrations against time was used to calculate the degradation rate (k) and half-life (t1/2) using the linear pseudo-first-order model (see S1 Appendix). […]
The linear slopes of the natural logarithm of a concentration against time were used to calculate the degradation rate (k) for the pseudo-first-order (Eq. 5).
Ln [At] = Ln [A0] - kt (5)
Where A0 is the CUR-2GE concentration at time 0, At is the concentration of CUR-2GE at time t, and k is the degradation rate constant of CUR-2GE.
as §1

Structure (SMILES): CCOC(=O)CCCNC(=O)Oc1ccc(/C=C/C(=O)/C=C(O)/C=C/c2ccc(OC(=O)NCCCC(=O)OCC)c(OC)c2)cc1OC [CUR-2GE, Curcumin diethyl γ-aminobutyrate]
- inhibition of IL-6 release [1]: to a greater extent than curcumin
- logP ([2]; n-octanol/buffer pH 4.5, pH 4.5, read-out: Log P (Log Po/buffer pH 4.5), n-octanol/buffer pH 4.5): 3.43 ± 0.14
- logP ([2]; n-octanol/water, read-out: Log P (Log Po/w), n-octanol/water): 3.57 ± 0.19
- hydrolysis rate in buffer pH 7.4 higher than pH 1.2 ([3]; 37°C): 262 folds
- hydrolysis rate in buffer pH 7.4 higher than pH 4.5 ([3]; 37°C): 778 folds
- hydrolysis rate in buffer pH 7.4 higher than pH 6.8 ([3]; 37°C): 1.94 folds
- half-life at 10 μg/mL ([3]; aqueous buffer pH 1.2, buffer pH 1.2, 37°C): 11.9 ± 0.14 h
- half-life at 10 μg/mL ([3]; aqueous buffer pH 4.5, buffer pH 4.5, 37°C): 36.4 ± 8.53 h
- half-life at 10 μg/mL ([3]; aqueous buffer pH 6.8, buffer pH 6.8, 37°C): 0.09 ± 0.01 h
- half-life at 10 μg/mL ([3]; aqueous buffer pH 7.4, buffer pH 7.4, 37°C): 0.045 ± 0.002 h
- k, pseudo-first-order hydrolysis ([3]; buffer pH 1.2, 37°C): 0.0583 ± 0.0007 h⁻¹
- k, pseudo-first-order hydrolysis ([3]; buffer pH 4.5, 37°C): 0.020 ± 0.004 h⁻¹
- k, pseudo-first-order hydrolysis ([3]; buffer pH 6.8, 37°C): 7.89 ± 0.54 h⁻¹
- k, pseudo-first-order hydrolysis ([3]; buffer pH 7.4, 37°C): 15.31 ± 0.70 h⁻¹
